For this assay, the target named is Factor D (Homo sapiens, UniProt P00746). Put plainly: Factor D esterolytic assay (Z-Lys-SBzl thioester substrate, DTNB, 405 nm). The format is biochemical. As to conditions: substrate Z-Lys-SBzl 1.29 mM, 100 mM HEPES, 500 mM NaCl, pH 7.5, 10% DMSO, tested a minimum of three times. In short, it runs like this:
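Run in pH 7.5 HEPES (100 mM) with 500 mM NaCl and 10% DMSO, with compound preincubated at room temperature or not before adding 1.29 mM Z-Lys-SBzl. Free thiol released by Factor D reacts with DTNB, and rate is followed at 405 nm minus 690 nm over 600 s. IC50 derives from rate-based inhibition, minimum three replicates.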
Factor D, sequence (P00746 26-253): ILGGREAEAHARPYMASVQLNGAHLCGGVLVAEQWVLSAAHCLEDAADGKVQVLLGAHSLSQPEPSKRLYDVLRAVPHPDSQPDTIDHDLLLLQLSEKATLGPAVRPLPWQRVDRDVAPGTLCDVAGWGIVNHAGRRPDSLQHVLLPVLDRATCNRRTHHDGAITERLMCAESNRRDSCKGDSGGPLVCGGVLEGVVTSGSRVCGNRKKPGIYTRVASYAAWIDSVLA
Turning to `C[C@@]1(F)C[C@@H](C(=O)Nc2cncc(Br)n2)N(C(=O)Cn2c3ccc(C(F)(F)F)cc3c3c(N)ncnc32)C1` [Compound 213d, (2S,4R)-1-(2-(4-amino-6-(trifluoromethyl)-9H-pyrimido[4,5-b]indol-9-yl)acetyl)-N-(6-bromopyrazin-2-yl)-4-fluoro-4-methylpyrrolidine-2-carboxamide], the IC50 (as a rule, the concentration needed to halve the response being measured) was below 100 nM. For the compound `Nc1ncnc2ccc(CC(=O)N3C[C@H](F)C[C@H]3C(=O)NCc3cccc(Cl)c3F)cc12` [Compound 294c, (2S,4R)-1-(2-(4-aminoquinazolin-6-yl)acetyl)-N-(3-chloro-2-fluorobenzyl)-4-fluoropyrrolidine-2-carboxamide], the IC50 was above 1000 nM.

Consider `Cc1ncc(-c2cn(CC(=O)N3C[C@H](F)C[C@H]3C(=O)NCc3cccc(Cl)c3F)c3ncnc(N)c23)cn1` [Compound 117d, (2S,4R)-1-(2-(4-amino-5-(2-methylpyrimidin-5-yl)-7H-pyrrolo[2,3-d]pyrimidin-7-yl)acetyl)-N-(3-chloro-2-fluorobenzyl)-4-fluoropyrrolidine-2-carboxamide], for which the IC50 fell in the range of 100 to 1000 nM. To `COc1cccc2c3c(N)ncnc3n(CC(=O)N3[C@@H]4C[C@@H]4C[C@H]3C(=O)Nc3cccc(Br)n3)c12` [Compound 54g, (1R,3S,5R)-2-(2-(4-amino-8-methoxy-9H-pyrimido[4,5-b]indol-9-yl)acetyl)-N-(6-bromopyridin-2-yl)-2-azabicyclo[3.1.0]hexane-3-carboxamide] belongs below 100 nM.

As for `Nc1ncnc2c1c1ccccc1n2CC(=O)N1CCC[C@H]1C(=O)Nc1cccc(Br)n1` [Compound 13b, (S)-1-(2-(4-amino-9H-pyrimido[4,5-b]indol-9-yl)acetyl)-N-(6-bromopyridin-2-yl)pyrrolidine-2-carboxamide], the IC50 is 100 to 1000 nM. `Cc1cc(-c2cccnc2)cc2c3c(N)ncnc3n(CC(=O)N3[C@H](C(=O)Nc4cccc(Br)n4)C[C@@]4(C)C[C@@H]34)c12` [Compound 289a, (1R,3S,5R)-2-(2-(4-amino-8-methyl-6-(pyridin-3-yl)-9H-pyrimido[4,5-b]indol-9-yl)acetyl)-N-(6-bromopyridin-2-yl)-5-methyl-2-azabicyclo[3.1.0]hexane-3-carboxamide]: the IC50 was below 100 nM. On to `Nc1ncnc2c1c1ccc(-c3ccccc3)cc1n2CC(=O)N1[C@@H]2C[C@@H]2C[C@H]1C(=O)Nc1cccc(Br)n1` [Compound 227c, (1R,3S,5R)-2-(2-(4-amino-7-phenyl-9H-pyrimido[4,5-b]indol-9-yl)acetyl)-N-(6-bromopyridin-2-yl)-2-azabicyclo[3.1.0]hexane-3-carboxamide], for which the IC50 is below 100 nM. For `C[C@@]12C[C@@H](C(=O)Nc3cccc(Br)n3)N(C(=O)Cn3c4cc(C(F)(F)F)ccc4c4c(N)ncnc43)[C@@H]1C2` [Compound 199a, (1R,3S,5R)-2-(2-(4-amino-7-(trifluoromethyl)-9H-pyrimido[4,5-b]indol-9-yl)acetyl)-N-(6-bromopyridin-2-yl)-5-methyl-2-azabicyclo[3.1.0]hexane-3-carboxamide], the IC50 was below 100 nM. To `Cc1cc(C(=O)O)cc2c3c(N)ncnc3n(CC(=O)N3[C@@H]4C[C@@H]4C[C@H]3C(=O)Nc3cccc(Br)n3)c12` [Compound 218a, 4-amino-9-(2-((1R,3S,5R)-3-((6-bromopyridin-2-yl)carbamoyl)-2-azabicyclo[3.1.0]hexan-2-yl)-2-oxoethyl)-8-methyl-9H-pyrimido[4,5-b]indole-6-carboxylic acid] belongs below 100 nM.

For the compound `Nc1ncnc2c1c1ccc(C(F)(F)F)cc1n2CC(=O)N1[C@@H]2C[C@@H]2C[C@H]1C(=O)Nc1cccc(Br)n1` [Compound 16e, (1R,3S,5R)-2-(2-(4-amino-7-(trifluoromethyl)-9H-pyrimido[4,5-b]indol-9-yl)acetyl)-N-(6-bromopyridin-2-yl)-2-azabicyclo[3.1.0]hexane-3-carboxamide], the IC50 is below 100 nM.

`Cc1nc(N)c2ccn(CC(=O)N3C[C@H](F)C[C@H]3C(=O)NCc3cccc(Cl)c3F)c2n1` [Compound 132d, (2S,4R)-1-(2-(4-amino-2-methyl-7H-pyrrolo[2,3-d]pyrimidin-7-yl)acetyl)-N-(3-chloro-2-fluorobenzyl)-4-fluoropyrrolidine-2-carboxamide]: the IC50 is above 1000 nM.

As for `Cc1cc(-c2ccnc(C(F)(F)F)c2)cc2c3c(N)ncnc3n(CC(=O)N3[C@H](C(=O)Nc4cccc(Br)n4)C[C@@]4(C)C[C@@H]34)c12` [Compound 355a, (1R,3S,5R)-2-(2-(4-amino-8-methyl-6-(2-(trifluoromethyl)pyridin-4-yl)-9H-pyrimido[4,5-b]indol-9-yl)acetyl)-N-(6-bromopyridin-2-yl)-5-methyl-2-azabicyclo[3.1.0]hexane-3-carboxamide], the IC50 was below 100 nM.

As for `Nc1ncnn2c(CC(=O)N3[C@@H]4C[C@@H]4C[C@H]3C(=O)Nc3cccc(Br)n3)ccc12` [Compound 70a, (1R,3S,5R)-2-(2-(4-aminopyrrolo[2,1-f][1,2,4]triazin-7-yl)acetyl)-N-(6-bromopyridin-2-yl)-2-azabicyclo[3.1.0]hexane-3-carboxamide], the IC50 fell in the range of 100 to 1000 nM. Turning to `Nc1ncnc2c1c1cc(Br)c(F)cc1n2CC(=O)N1[C@@H]2C[C@@H]2C[C@H]1C(=O)Nc1cccc(Br)n1` [Compound 389g, (1R,3S,5R)-2-(2-(4-amino-6-bromo-7-fluoro-9H-pyrimido[4,5-b]indol-9-yl)acetyl)-N-(6-bromopyridin-2-yl)-2-azabicyclo[3.1.0]hexane-3-carboxamide], the half-maximal inhibitory concentration (IC50) is below 100 nM. Take `Cc1ccc2c(c1)c1c(N)ncnc1n2CC(=O)N1C[C@H](F)C[C@H]1C(=O)NCc1cccc(Cl)c1F` [Compound 7b, (2S,4R)-1-(2-(4-amino-6-methyl-9H-pyrimido[4,5-b]indol-9-yl)acetyl)-N-(3-chloro-2-fluorobenzyl)-4-fluoropyrrolidine-2-carboxamide]: the IC50 was below 100 nM. To `COc1ccc2c(c1)c1c(N)ncnc1n2CC(=O)N1[C@H](C(=O)Nc2nc(Br)ccc2C)C[C@@]2(C)C[C@@H]12` [Compound 252a, (1R,3S,5R)-2-(2-(4-amino-6-methoxy-9H-pyrimido[4,5-b]indol-9-yl)acetyl)-N-(6-bromo-3-methylpyridin-2-yl)-5-methyl-2-azabicyclo[3.1.0]hexane-3-carboxamide] belongs below 100 nM. On to `Cc1ccc(Br)nc1NC(=O)[C@@H]1C[C@@]2(C)C[C@H]2N1C(=O)Cn1c2ccccc2c2c(N)ncnc21` [Compound 12a, (1R,3S,5R)-2-(2-(4-amino-9H-pyrimido[4,5-b]indol-9-yl)acetyl)-N-(6-bromo-3-methylpyridin-2-yl)-5-methyl-2-azabicyclo[3.1.0]hexane-3-carboxamide], for which the IC50 was below 100 nM. To `NC[C@@H]1C[C@@H](C(=O)Nc2cccc(Br)n2)N(C(=O)Cn2c3ccc(C(F)(F)F)cc3c3c(N)ncnc32)C1` [Compound 211e, (2S,4S)-1-(2-(4-amino-6-(trifluoromethyl)-9H-pyrimido[4,5-b]indol-9-yl)acetyl)-4-(aminomethyl)-N-(6-bromopyridin-2-yl)pyrrolidine-2-carboxamide] belongs 100 to 1000 nM. `Nc1ncnc2c1c1c(F)cccc1n2CC(=O)N1[C@@H]2C[C@@H]2C[C@H]1C(=O)Nc1cccc(Br)n1` [Compound 50f, (1R,3S,5R)-2-(2-(4-amino-5-fluoro-9H-pyrimido[4,5-b]indol-9-yl)acetyl)-N-(6-bromopyridin-2-yl)-2-azabicyclo[3.1.0]hexane-3-carboxamide]: the IC50 lay in the range of 100 to 1000 nM. The result for `Nc1ncnc2c1cnn2CC(=O)N1[C@@H]2C[C@@H]2C[C@H]1C(=O)Nc1cccc(Br)n1` [Compound 79a, (1R,3S,5R)-2-(2-(4-amino-1H-pyrazolo[3,4-d]pyrimidin-1-yl)acetyl)-N-(6-bromopyridin-2-yl)-2-azabicyclo[3.1.0]hexane-3-carboxamide] reads 100 to 1000 nM; that for `Nc1ncnc2c1cc1n2C(C(=O)N2[C@@H](C(=O)Nc3cccc(Br)n3)C[C@@H]3C[C@@H]32)Oc2ccccc2-1` (stereo partly drawn) [Compound 233h, (1S,3R,5S)-2-(11-amino-6H-benzo[e]pyrimido[5′,4′:4,5]pyrrolo[1,2-c][,3]oxazine-6-carbonyl)-N-(6-bromopyridin-2-yl)-2-azabicyclo[3.1.0]hexane-3-carboxamide], below 100 nM. Consider `Nc1c(C(=O)O)cnc2c1ccn2CC(=O)N1C[C@H](F)C[C@H]1C(=O)NCc1cccc(Cl)c1F` [Compound 151a, 4-amino-1-(2-((2S,4R)-2-((3-chloro-2-fluorobenzyl)carbamoyl)-4-fluoropyrrolidin-1-yl)-2-oxoethyl)-1H-pyrrolo[2,3-b]pyridine-5-carboxylic acid], for which the IC50 lay within 100 to 1000 nM. Turning to `NCCNc1ncnc2c1ncn2CC(=O)N1C[C@H](F)C[C@H]1C(=O)NCc1cccc(Cl)c1F` [Compound 123g, (2S,4R)-1-(2-(6-((2-aminoethyl)amino)-9H-purin-9-yl)acetyl)-N-(3-chloro-2-fluorobenzyl)-4-fluoropyrrolidine-2-carboxamide], the IC50 was above 1000 nM. Consider `Nc1ncnc2c(CC(=O)N3C[C@H](F)C[C@H]3C(=O)NCc3cccc(Cl)c3F)cccc12` [Compound 138d, (2S,4R)-1-(2-(4-aminoquinazolin-8-yl)acetyl)-N-(3-chloro-2-fluorobenzyl)-4-fluoropyrrolidine-2-carboxamide], for which the IC50 was 100 to 1000 nM. On to `Cc1ncc(-c2cc(C)c3c(c2)c2c(N)ncnc2n3CC(=O)N2C[C@](C)(F)C[C@H]2C(=O)Nc2cccc(Br)n2)cn1` [Compound 316a, (2S,4R)-1-(2-(4-amino-8-methyl-6-(2-methylpyrimidin-5-yl)-9H-pyrimido[4,5-b]indol-9-yl)acetyl)-N-(6-bromopyridin-2-yl)-4-fluoro-4-methylpyrrolidine-2-carboxamide], for which the IC50 was below 100 nM.

(Values after patent US12679843B2, “Pyrrolopyrimidine amines as complement inhibitors” (BioCryst Pharmaceuticals, Inc., priority 2020, dated 2026).)
